In PubChem BioAssay (NCI):
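96-well plates; 48 h exposure; 5 concentrations. Endpoints by linear interpolation between flanking doses. Not reached: highest tested concentration assigned. TGI marks complete inhibition of growth.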

What was measured:
Test in all cases: NCI anticancer screen, dose series, 48 h
SN12C renal = test system: SN12C renal
HCT-116 colon = test system: HCT-116 colon
HS 578T breast = test system: HS 578T breast
OVCAR-5 ovarian = test system: OVCAR-5 ovarian
M14 melanoma = test system: M14 melanoma
OVCAR-3 ovarian = test system: OVCAR-3 ovarian
SK-MEL-28 melanoma = test system: SK-MEL-28 melanoma
SW-620 colon = test system: SW-620 colon
RXF 393 renal = test system: RXF 393 renal
SF-539 CNS = test system: SF-539 CNS
SF-295 CNS = test system: SF-295 CNS
KM12 colon = test system: KM12 colon
SF-268 CNS = test system: SF-268 CNS
MDA-MB-435 = test system: MDA-MB-435
A549 NSCLC = test system: A549 NSCLC
COLO 205 colon = test system: COLO 205 colon
OVCAR-4 ovarian = test system: OVCAR-4 ovarian
CCRF-CEM leukemia = test system: CCRF-CEM leukemia
IGROV1 ovarian = test system: IGROV1 ovarian
BT-549 breast = test system: BT-549 breast
SK-MEL-5 melanoma = test system: SK-MEL-5 melanoma
RPMI-8226 leukemia = test system: RPMI-8226 leukemia
PC-3 prostate = test system: PC-3 prostate
HOP-92 NSCLC = test system: HOP-92 NSCLC
NCI/ADR-RES ovarian = test system: NCI/ADR-RES ovarian
UACC-257 melanoma = test system: UACC-257 melanoma
HCT-15 colon = test system: HCT-15 colon
MOLT-4 leukemia = test system: MOLT-4 leukemia
MDA-MB-231 breast = test system: MDA-MB-231 breast
CAKI-1 renal = test system: CAKI-1 renal
OVCAR-8 ovarian = test system: OVCAR-8 ovarian
NCI-H460 lung = test system: NCI-H460 lung
SNB-75 CNS = test system: SNB-75 CNS
NCI-H522 lung = test system: NCI-H522 lung
U251 CNS = test system: U251 CNS
MDA-N = test system: MDA-N
HOP-62 NSCLC = test system: HOP-62 NSCLC
SK-MEL-2 melanoma = test system: SK-MEL-2 melanoma
T-47D breast = test system: T-47D breast
NCI-H226 lung = test system: NCI-H226 lung
786-0 renal = test system: 786-0 renal
MALME-3M melanoma = test system: MALME-3M melanoma
NCI-H23 lung = test system: NCI-H23 lung
SR leukemia = test system: SR leukemia
UO-31 renal = test system: UO-31 renal
K-562 leukemia = test system: K-562 leukemia
TK-10 renal = test system: TK-10 renal
ACHN renal = test system: ACHN renal
DU-145 prostate = test system: DU-145 prostate
HT29 colon = test system: HT29 colon
SNB-19 CNS = test system: SNB-19 CNS
UACC-62 melanoma = test system: UACC-62 melanoma
SK-OV-3 ovarian = test system: SK-OV-3 ovarian
HCC-2998 colon = test system: HCC-2998 colon

COc1ccccc1NC(=S)NNC(=O)c1cc(-c2ccccc2)nc2ccccc12
TGI (SN12C renal): 41.5 µM | TGI (HCT-116 colon): 25.6 µM | TGI (HS 578T breast): 50.2 µM | TGI (OVCAR-5 ovarian): 47 µM | TGI (M14 melanoma): 26.1 µM | TGI (OVCAR-3 ovarian): 18.2 µM | TGI (SK-MEL-28 melanoma): 62 µM | TGI (SW-620 colon): 84.9 µM | TGI (RXF 393 renal): 28.8 µM | TGI (SF-539 CNS): 28.1 µM | TGI (SF-295 CNS): 18 µM | TGI (KM12 colon): 46.5 µM | TGI (SF-268 CNS): 74.8 µM | TGI (MDA-MB-435): 18.5 µM | TGI (A549 NSCLC): 35 µM | TGI (COLO 205 colon): 45.8 µM | TGI (OVCAR-4 ovarian): 85.4 µM | TGI (CCRF-CEM leukemia): 6.95 µM | TGI (IGROV1 ovarian): 68.5 µM | TGI (BT-549 breast): 63.8 µM | TGI (SK-MEL-5 melanoma): 19.8 µM | TGI (RPMI-8226 leukemia): 53.6 µM | TGI (PC-3 prostate): 49.3 µM | TGI (HOP-92 NSCLC): 36.5 µM | TGI (NCI/ADR-RES ovarian): 63.5 µM | TGI (UACC-257 melanoma): 57.8 µM | TGI (HCT-15 colon): 20.2 µM | TGI (MOLT-4 leukemia): 26.5 µM | TGI (MDA-MB-231 breast): 63.7 µM | TGI (CAKI-1 renal): 39.5 µM | TGI (OVCAR-8 ovarian): 49 µM | TGI (NCI-H460 lung): 98 µM | TGI (SNB-75 CNS): 85 µM | TGI (NCI-H522 lung): 50 µM | TGI (U251 CNS): 43.7 µM | TGI (MDA-N): 7.78 µM | TGI (HOP-62 NSCLC): 32 µM | TGI (SK-MEL-2 melanoma): 31.2 µM | TGI (T-47D breast): 63 µM | TGI (NCI-H226 lung): 51.9 µM | TGI (786-0 renal): 32.8 µM | TGI (MALME-3M melanoma): 28.9 µM | TGI (NCI-H23 lung): 32.3 µM | TGI (SR leukemia): 4.53 µM | TGI (UO-31 renal): 24.6 µM | TGI (K-562 leukemia): > 100 µM | TGI (TK-10 renal): > 100 µM | TGI (ACHN renal): 65.8 µM | TGI (DU-145 prostate): 32 µM | TGI (HT29 colon): 71.3 µM | TGI (SNB-19 CNS): > 100 µM | TGI (UACC-62 melanoma): 23.2 µM | TGI (SK-OV-3 ovarian): 42.1 µM | TGI (HCC-2998 colon): 28.6 µM
